Laboratory results: doi:10.1101/2020.06.11.145995v1 (biorxiv, 2020)
Where two headings read alike, the source gives them in different places.

What was measured:
Assay in all cases: biochemical
MAPKAPK2 = MAPKAPK2 (Homo sapiens, UniProt P49137)
INSRR = INSRR (Homo sapiens, UniProt P14616)
DAPK1 = DAPK1 (Homo sapiens, UniProt P53355)
MUSK = MUSK (Homo sapiens, UniProt O15146)
CDK2 = CDK2 (Homo sapiens, UniProt P24941)
MLK1 = MLK1 (Homo sapiens, UniProt P80192)
BMX = BMX (Homo sapiens, UniProt P51813)
DCAMKL3 = DCAMKL3 (Homo sapiens, UniProt Q9C098)
CASK = CASK (Homo sapiens, UniProt O14936)
AXL = AXL (Homo sapiens, UniProt P30530)
CAMK2D = CAMK2D (Homo sapiens, UniProt Q13557)
CDK9 = CDK9 (Homo sapiens, UniProt P50750)
CDK11 = CDK11 (Homo sapiens, UniProt Q9BWU1)
FGFR4 = FGFR4 (Homo sapiens, UniProt P22455)
ACVR1 = ACVR1 (Homo sapiens, UniProt Q04771)
CDC2L1 = CDC2L1 (Homo sapiens, UniProt P21127)
DAPK2 = DAPK2 (Homo sapiens, UniProt Q9UIK4)
FLT3(R834Q) = FLT3(R834Q) (Homo sapiens, UniProt P36888, R834Q)
MLK3 = MLK3 (Homo sapiens, UniProt Q16584)
GRK7 = GRK7 (Homo sapiens, UniProt Q8WTQ7)
IKK-alpha = IKK-alpha (Homo sapiens, UniProt O15111)
DYRK1A = DYRK1A (Homo sapiens, UniProt Q13627)
MLK2 = MLK2 (Homo sapiens, UniProt Q02779)
FGR = FGR (Homo sapiens, UniProt P09769)
FGFR1 = FGFR1 (Homo sapiens, UniProt P11362)
CSNK1G3 = CSNK1G3 (Homo sapiens, UniProt Q9Y6M4)
ALK = ALK (Homo sapiens, UniProt Q9UM73)
NUAK1 = NUAK1 (Homo sapiens, UniProt O60285)
CDC2L2 = CDC2L2 (Homo sapiens, UniProt Q9UQ88)
AKT1 = AKT1 (Homo sapiens, UniProt P31749)
[1] = read-out: HYJ-2-002-1 (1uM) % control
[2] = read-out: CPT-1-70-1 (1uM) % control

Sequence of ACVR1 (Q04771 whole entry): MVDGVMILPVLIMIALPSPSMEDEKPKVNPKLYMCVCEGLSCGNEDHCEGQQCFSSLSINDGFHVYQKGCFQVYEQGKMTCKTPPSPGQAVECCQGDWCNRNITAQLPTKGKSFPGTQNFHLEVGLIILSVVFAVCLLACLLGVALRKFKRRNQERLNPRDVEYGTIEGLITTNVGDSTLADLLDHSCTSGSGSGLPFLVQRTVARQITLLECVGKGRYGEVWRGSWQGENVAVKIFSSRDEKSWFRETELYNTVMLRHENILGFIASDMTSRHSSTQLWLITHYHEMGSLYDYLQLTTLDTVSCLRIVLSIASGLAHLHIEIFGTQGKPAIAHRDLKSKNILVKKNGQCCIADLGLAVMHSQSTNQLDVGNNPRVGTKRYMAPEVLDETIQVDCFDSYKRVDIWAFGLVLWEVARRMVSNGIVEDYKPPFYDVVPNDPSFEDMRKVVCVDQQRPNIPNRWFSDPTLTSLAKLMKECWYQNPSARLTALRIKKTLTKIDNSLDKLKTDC
Sequence of CDK11 (Q9BWU1 whole entry): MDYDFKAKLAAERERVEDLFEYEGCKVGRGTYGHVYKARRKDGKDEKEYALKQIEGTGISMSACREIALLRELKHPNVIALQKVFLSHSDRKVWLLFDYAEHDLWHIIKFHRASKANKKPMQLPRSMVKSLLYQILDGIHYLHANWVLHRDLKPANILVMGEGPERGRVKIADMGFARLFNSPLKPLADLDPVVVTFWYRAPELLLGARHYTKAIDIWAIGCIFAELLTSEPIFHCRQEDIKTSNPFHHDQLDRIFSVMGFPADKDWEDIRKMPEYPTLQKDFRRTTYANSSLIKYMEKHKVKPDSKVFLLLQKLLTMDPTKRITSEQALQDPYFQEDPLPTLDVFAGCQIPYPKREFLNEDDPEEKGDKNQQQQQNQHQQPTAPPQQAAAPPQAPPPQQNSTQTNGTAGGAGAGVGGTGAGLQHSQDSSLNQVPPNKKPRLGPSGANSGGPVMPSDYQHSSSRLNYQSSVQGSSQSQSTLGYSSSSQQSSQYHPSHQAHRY
Sequence of FGFR4 (P22455 whole entry): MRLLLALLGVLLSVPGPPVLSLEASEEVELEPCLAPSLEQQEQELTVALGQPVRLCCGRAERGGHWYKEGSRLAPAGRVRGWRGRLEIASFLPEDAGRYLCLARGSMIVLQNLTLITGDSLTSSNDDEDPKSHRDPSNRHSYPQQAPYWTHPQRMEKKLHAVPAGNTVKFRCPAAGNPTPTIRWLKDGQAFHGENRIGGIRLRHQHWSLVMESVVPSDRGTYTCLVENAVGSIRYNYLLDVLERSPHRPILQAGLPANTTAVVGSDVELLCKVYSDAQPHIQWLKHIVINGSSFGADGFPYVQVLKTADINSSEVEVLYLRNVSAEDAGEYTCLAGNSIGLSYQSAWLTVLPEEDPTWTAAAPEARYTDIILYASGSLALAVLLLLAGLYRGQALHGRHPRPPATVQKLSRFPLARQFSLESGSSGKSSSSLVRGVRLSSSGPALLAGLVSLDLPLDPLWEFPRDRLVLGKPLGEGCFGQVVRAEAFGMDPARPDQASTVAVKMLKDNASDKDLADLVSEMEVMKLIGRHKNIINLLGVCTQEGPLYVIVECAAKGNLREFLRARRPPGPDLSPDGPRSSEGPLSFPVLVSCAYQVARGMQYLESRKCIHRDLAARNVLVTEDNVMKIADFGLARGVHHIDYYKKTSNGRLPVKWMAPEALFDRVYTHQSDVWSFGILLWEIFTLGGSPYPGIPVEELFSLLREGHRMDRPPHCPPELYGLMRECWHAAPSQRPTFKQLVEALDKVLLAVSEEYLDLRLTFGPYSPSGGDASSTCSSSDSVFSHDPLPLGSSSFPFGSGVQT
Sequence of AKT1 (P31749 whole entry): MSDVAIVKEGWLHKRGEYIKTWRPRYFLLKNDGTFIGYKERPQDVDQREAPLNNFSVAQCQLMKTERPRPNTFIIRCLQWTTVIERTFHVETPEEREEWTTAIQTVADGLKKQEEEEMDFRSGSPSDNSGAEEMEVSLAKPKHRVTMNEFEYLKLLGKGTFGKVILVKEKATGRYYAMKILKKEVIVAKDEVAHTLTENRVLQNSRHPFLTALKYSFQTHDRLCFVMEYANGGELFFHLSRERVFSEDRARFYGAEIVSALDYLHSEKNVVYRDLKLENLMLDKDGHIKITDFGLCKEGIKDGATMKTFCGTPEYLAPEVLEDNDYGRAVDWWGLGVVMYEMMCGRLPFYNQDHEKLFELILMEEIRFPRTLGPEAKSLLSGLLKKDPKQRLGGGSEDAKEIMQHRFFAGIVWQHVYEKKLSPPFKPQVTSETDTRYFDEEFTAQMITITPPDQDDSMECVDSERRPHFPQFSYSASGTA
Sequence of CAMK2D (Q13557 whole entry): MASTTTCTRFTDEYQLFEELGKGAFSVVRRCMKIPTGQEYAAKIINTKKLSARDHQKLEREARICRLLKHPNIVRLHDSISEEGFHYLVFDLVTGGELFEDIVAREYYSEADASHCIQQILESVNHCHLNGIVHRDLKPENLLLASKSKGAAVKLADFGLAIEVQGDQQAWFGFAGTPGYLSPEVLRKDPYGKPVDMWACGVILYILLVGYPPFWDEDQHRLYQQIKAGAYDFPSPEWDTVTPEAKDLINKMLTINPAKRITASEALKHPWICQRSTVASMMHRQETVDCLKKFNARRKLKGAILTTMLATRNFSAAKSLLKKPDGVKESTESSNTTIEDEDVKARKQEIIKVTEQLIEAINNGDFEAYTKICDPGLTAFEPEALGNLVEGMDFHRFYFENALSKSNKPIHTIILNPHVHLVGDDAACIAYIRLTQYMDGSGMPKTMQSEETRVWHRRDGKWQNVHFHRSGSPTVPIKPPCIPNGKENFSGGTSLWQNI
Sequence of DAPK1 (P53355 whole entry): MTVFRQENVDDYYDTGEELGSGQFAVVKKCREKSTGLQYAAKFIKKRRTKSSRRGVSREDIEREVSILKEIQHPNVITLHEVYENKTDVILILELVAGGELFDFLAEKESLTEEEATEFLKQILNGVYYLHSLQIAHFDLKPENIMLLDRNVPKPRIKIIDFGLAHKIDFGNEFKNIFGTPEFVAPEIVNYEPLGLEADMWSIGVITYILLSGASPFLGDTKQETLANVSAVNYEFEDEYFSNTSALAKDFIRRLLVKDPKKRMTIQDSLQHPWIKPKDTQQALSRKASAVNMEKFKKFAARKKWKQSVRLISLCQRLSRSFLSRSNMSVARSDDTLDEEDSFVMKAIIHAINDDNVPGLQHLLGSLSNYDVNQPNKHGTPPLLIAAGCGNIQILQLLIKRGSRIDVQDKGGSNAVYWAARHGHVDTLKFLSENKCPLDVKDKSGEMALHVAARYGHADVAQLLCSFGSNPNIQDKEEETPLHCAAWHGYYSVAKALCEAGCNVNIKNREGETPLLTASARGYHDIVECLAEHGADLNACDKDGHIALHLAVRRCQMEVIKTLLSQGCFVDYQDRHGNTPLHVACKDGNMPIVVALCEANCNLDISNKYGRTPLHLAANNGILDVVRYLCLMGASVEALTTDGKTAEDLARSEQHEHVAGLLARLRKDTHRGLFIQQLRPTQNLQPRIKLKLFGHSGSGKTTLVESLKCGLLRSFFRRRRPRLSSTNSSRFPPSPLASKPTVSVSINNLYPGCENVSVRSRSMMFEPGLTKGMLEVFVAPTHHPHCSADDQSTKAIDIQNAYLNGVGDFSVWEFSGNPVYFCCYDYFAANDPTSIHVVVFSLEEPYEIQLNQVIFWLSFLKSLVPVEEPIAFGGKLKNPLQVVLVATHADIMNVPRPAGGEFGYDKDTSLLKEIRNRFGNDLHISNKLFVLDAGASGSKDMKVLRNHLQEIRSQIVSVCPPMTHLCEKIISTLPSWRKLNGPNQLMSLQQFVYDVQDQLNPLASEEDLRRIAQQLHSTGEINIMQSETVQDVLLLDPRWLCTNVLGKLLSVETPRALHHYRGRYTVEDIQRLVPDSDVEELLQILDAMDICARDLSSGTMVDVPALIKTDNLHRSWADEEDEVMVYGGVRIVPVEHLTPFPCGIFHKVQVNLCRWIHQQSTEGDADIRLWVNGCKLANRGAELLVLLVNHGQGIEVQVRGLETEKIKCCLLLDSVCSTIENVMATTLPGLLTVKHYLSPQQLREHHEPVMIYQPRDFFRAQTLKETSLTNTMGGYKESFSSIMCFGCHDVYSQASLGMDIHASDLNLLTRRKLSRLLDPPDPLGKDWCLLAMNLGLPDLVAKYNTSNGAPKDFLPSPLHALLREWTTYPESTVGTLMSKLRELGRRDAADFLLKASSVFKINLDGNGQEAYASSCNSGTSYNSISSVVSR
Sequence of CSNK1G3 (Q9Y6M4 whole entry): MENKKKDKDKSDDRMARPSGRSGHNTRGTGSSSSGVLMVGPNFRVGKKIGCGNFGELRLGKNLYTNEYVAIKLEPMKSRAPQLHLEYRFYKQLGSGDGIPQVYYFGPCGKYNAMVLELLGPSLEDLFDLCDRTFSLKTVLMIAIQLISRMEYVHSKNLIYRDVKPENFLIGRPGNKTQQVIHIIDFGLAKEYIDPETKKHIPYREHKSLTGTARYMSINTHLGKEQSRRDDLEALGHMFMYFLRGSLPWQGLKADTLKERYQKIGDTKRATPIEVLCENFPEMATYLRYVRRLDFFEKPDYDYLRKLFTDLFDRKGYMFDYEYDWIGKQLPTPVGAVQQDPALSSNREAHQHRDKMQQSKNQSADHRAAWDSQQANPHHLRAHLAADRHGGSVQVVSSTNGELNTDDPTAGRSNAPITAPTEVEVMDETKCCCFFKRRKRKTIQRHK
Sequence of CDK9 (P50750 whole entry): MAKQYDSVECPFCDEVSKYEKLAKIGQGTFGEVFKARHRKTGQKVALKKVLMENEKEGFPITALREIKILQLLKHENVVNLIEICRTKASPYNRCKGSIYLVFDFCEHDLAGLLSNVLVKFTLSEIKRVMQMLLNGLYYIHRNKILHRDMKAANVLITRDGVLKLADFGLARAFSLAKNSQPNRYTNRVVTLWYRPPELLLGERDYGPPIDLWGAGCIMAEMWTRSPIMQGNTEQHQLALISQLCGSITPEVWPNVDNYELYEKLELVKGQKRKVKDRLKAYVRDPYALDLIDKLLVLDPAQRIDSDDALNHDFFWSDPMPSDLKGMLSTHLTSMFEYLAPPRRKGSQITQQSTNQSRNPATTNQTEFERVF

Compound: CCN1CCN(Cc2ccc(NC(=O)c3ccc(C)c(CCc4cnc5[nH]ccc5c4OC)c3)cc2C(F)(F)F)CC1 [HYJ-2-002-1]
- remaining activity at 1 µM (MAPKAPK2; [1]): 100%
- remaining activity at 1 µM (INSRR; [1]): 100%
- remaining activity at 1 µM (DAPK1; [1]): 98%
- remaining activity at 1 µM (MUSK; [1]): 1.4%
- remaining activity at 1 µM (CDK2; [1]): 100%
- remaining activity at 1 µM (MLK1; [1]): 100%
- remaining activity at 1 µM (BMX; [1]): 8.7%
- remaining activity at 1 µM (DCAMKL3; [1]): 84%
- remaining activity at 1 µM (CASK; [1]): 100%
- remaining activity at 1 µM (AXL; [1]): 21%
- remaining activity at 1 µM (CAMK2D; [1]): 100%
- remaining activity at 1 µM (CDK9; [1]): 100%
- remaining activity at 1 µM (CDK11; [1]): 14%
- remaining activity at 1 µM (FGFR4; [1]): 4.4%
- remaining activity at 1 µM (ACVR1; [1]): 100%
- remaining activity at 1 µM (CDC2L1; [1]): 88%
- remaining activity at 1 µM (DAPK2; [1]): 92%
- remaining activity at 1 µM (FLT3(R834Q); [1]): 44%
- remaining activity at 1 µM (MLK3; [1]): 53%
- remaining activity at 1 µM (GRK7; [1]): 100%
- remaining activity at 1 µM (IKK-alpha; [1]): 0.2%
- remaining activity at 1 µM (DYRK1A; [1]): 62%
- remaining activity at 1 µM (MLK2; [1]): 93%
- remaining activity at 1 µM (FGR; [1]): 0.75%
- remaining activity at 1 µM (FGFR1; [1]): 1.2%
- remaining activity at 1 µM (CSNK1G3; [1]): 65%
- remaining activity at 1 µM (ALK; [1]): 75%
- remaining activity at 1 µM (NUAK1; [1]): 65%
- remaining activity at 1 µM (CDC2L2; [1]): 76%
- remaining activity at 1 µM (AKT1; [1]): 100%

Compound: CN1CCN(c2ccc(Nc3nc(Oc4ccc(NC(=O)CCl)cc4)c4cc[nH]c4n3)cc2)CC1 [CPT1-70-1]
- remaining activity at 1 µM (MAPKAPK2; [2]): 100%
- remaining activity at 1 µM (INSRR; [2]): 33%
- remaining activity at 1 µM (DAPK1; [2]): 86%
- remaining activity at 1 µM (MUSK; [2]): 8.8%
- remaining activity at 1 µM (CDK2; [2]): 100%
- remaining activity at 1 µM (MLK1; [2]): 9%
- remaining activity at 1 µM (BMX; [2]): 9.2%
- remaining activity at 1 µM (DCAMKL3; [2]): 56%
- remaining activity at 1 µM (CASK; [2]): 100%
- remaining activity at 1 µM (AXL; [2]): 4.8%
- remaining activity at 1 µM (CAMK2D; [2]): 100%
- remaining activity at 1 µM (CDK9; [2]): 90%
- remaining activity at 1 µM (CDK11; [2]): 100%
- remaining activity at 1 µM (FGFR4; [2]): 60%
- remaining activity at 1 µM (ACVR1; [2]): 100%
- remaining activity at 1 µM (CDC2L1; [2]): 100%
- remaining activity at 1 µM (DAPK2; [2]): 88%
- remaining activity at 1 µM (FLT3(R834Q); [2]): 51%
- remaining activity at 1 µM (MLK3; [2]): 91%
- remaining activity at 1 µM (GRK7; [2]): 100%
- remaining activity at 1 µM (IKK-alpha; [2]): 85%
- remaining activity at 1 µM (DYRK1A; [2]): 100%
- remaining activity at 1 µM (MLK2; [2]): 56%
- remaining activity at 1 µM (FGR; [2]): 4.2%
- remaining activity at 1 µM (FGFR1; [2]): 2.2%
- remaining activity at 1 µM (CSNK1G3; [2]): 2.6%
- remaining activity at 1 µM (ALK; [2]): 38%
- remaining activity at 1 µM (NUAK1; [2]): 9.3%
- remaining activity at 1 µM (CDC2L2; [2]): 100%
- remaining activity at 1 µM (AKT1; [2]): 100%
